Results reported in the supplement of paper PMC11208160.

Experiment: recombinant barcode read abundance after kanamycin selection (control-corrected) (log10(CPM+1)); higher = more efficient recombination; sequences stand for … in AGTGCAGAGAAAATCGGCCAGTTTTCTCTGCCTGCAGTCCGCATGCCGT…AGATTTATGCAGCGGACTGCCTTTCTCCCAAAGTGATAAACCGGACAGTATCATGGACCGGTTTTCCCGGTAATCCGTATTTGCAAGGTTGGTTTCACT; site = the 11-nt target
In short: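 Targets were screened in pooled form in E. coli against IS621 bridge RNA target-binding loops. Recombination efficiency is based on barcode counts at recombinant junctions in counts per million, averaged and corrected for the control. Numbers are shown as log10(CPM+1), with duplicate plates on chloramphenicol/ampicillin LB agar (control) or chloramphenicol/ampicillin/kanamycin with 0.1 mM IPTG.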
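Further: IS621 recombinase and bridge RNA in Escherichia coli cells.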

Sequence	recombinant barcode read abundance (log10)
GAGAGATCTTGGGTTCTAACCTGTTGCCT (site GAGACATCTAG)	0.157
GAGAGATCTTGGGTTCTAACCTGTTGCCT (site GAGAGATCTAG)	1.46
GAGAGATCTTGGGTTCTAACCTGTTGCCT (site GAGATATCTAG)	0.117
GAGAGCACTTGGGTTCTAACCTGTTGCCT (site AAGAGCACTAG)	0.256
GAGAGCACTTGGGTTCTAACCTGTTGCCT (site CAGAGCACTAG)	0.603
GAGAGCACTTGGGTTCTAACCTGTTGCCT (site GAGAGCACTAG)	1.4
GAGAGCACTTGGGTTCTAACCTGTTGCCT (site TAGAGCACTAG)	0.548
GAGAGGTCTTGGGTTCTAACCTGTTGCAT (site GAGAGGTCTAA)	0.552
GAGAGGTCTTGGGTTCTAACCTGTTGCAT (site GAGAGGTCTAC)	0.435
GAGAGGTCTTGGGTTCTAACCTGTTGCAT (site GAGAGGTCTAG)	0.458
GAGAGGTCTTGGGTTCTAACCTGTTGCAT (site GAGAGGTCTAT)	1.82
GAGAGGTCTTGGGTTCTAACCTGTTGCTT (site GAGAGGTCTAA)	1.79
GAGAGGTCTTGGGTTCTAACCTGTTGCTT (site GAGAGGTCTAC)	0.202
GAGAGGTCTTGGGTTCTAACCTGTTGCTT (site GAGAGGTCTAG)	0.893
GAGAGGTCTTGGGTTCTAACCTGTTGCTT (site GAGAGGTCTAT)	1.46
GAGCAACCTTGGGTTCTAACCTGTTGCTT (site ATAAGCTCTCG)	0.25
GAGCAACCTTGGGTTCTAACCTGTTGCTT (site GAGCAACCTAA)	0.0979
GAGCAGGCTTGGGTTCTAACCTGTTGCTT (site AGTTCTCCTCG)	0.196
GAGCAGGCTTGGGTTCTAACCTGTTGCTT (site GAGCAGGCTAA)	0.661
GAGCCATCTTGGGTTCTAACCTGTTGCTT (site GAGCCATCTAA)	0.524
GAGCCATCTTGGGTTCTAACCTGTTGCTT (site GAGTCGTCTAA)	0.261
GAGCGCTCTTGGGTTCTAACCTGTTGCCG (site GAGCGCTCTCG)	0.754
GAGCGCTCTTGGGTTCTAACCTGTTGCCG (site GAGCGTTCTAG)	0.269
GAGGACTCTTGGGTTCTAACCTGTTGCCA (site GAGGACTCTAG)	1.46
GAGGACTCTTGGGTTCTAACCTGTTGCCA (site GAGGACTCTCG)	0.263
GAGGACTCTTGGGTTCTAACCTGTTGCCA (site GAGGACTCTGG)	0.824

Sequence	recombinant barcode read abundance (log10)
GAGGACTCTTGGGTTCTAACCTGTTGCCA (site GAGGACTCTTG)	2.27
GAGGCTTCTTGGGTTCTAACCTGTTGCCT (site GAGGCTTCTAG)	0.42
GAGGCTTCTTGGGTTCTAACCTGTTGCCT (site GCGGCTTCTAG)	0.435
GAGGCTTCTTGGGTTCTAACCTGTTGCCT (site GGGGCTTCTAG)	0.184
GAGGCTTCTTGGGTTCTAACCTGTTGCCT (site GTGGCTTCTAG)	0.515
GAGGGAGCTTGGGTTCTAACCTGTTGCAT (site GAGAGAGCTAT)	1.33
GAGGGAGCTTGGGTTCTAACCTGTTGCAT (site GAGCGAGCTAT)	0.171
GAGGGAGCTTGGGTTCTAACCTGTTGCAT (site GAGGGAGCTAT)	2.43
GAGGGAGCTTGGGTTCTAACCTGTTGCAT (site GAGTGAGCTAT)	0.315
GAGGGGACTTGGGTTCTAACCTGTTGCAG (site GAGGGGACTCT)	2.76
GAGGGGACTTGGGTTCTAACCTGTTGCAG (site TCCTTCTCTAG)	0.307
GAGGTATCTTGGGTTCTAACCTGTTGCGT (site GAGGTATCTAC)	0.252
GAGGTATCTTGGGTTCTAACCTGTTGCGT (site GAGGTATCTTG)	0.303
GAGGTATCTTGGGTTCTAACCTGTTGCTT (site GAGGTATCTAA)	0.35
GAGGTATCTTGGGTTCTAACCTGTTGCTT (site GAGGTATCTTA)	0.0893
GAGGTCACTTGGGTTCTAACCTGTTGCTA (site GAGGTCACTTA)	2.26
GAGGTCACTTGGGTTCTAACCTGTTGCTA (site TCTCCTCCTAT)	0.186
GAGGTCCCTTGGGTTCTAACCTGTTGCGG (site CTCCCTGCTAG)	0.2
GAGGTCCCTTGGGTTCTAACCTGTTGCGG (site GAGGTCCCTCC)	2.93
GAGTACACTTGGGTTCTAACCTGTTGCGC (site AGCGCGCCTCA)	0.0967
GAGTACACTTGGGTTCTAACCTGTTGCGC (site GAGTACACTGC)	2.53
GAGTACCCTTGGGTTCTAACCTGTTGCCT (site GAGTACCCTAG)	1.96
GAGTACCCTTGGGTTCTAACCTGTTGCCT (site GCGTACCCTAG)	0.162
GAGTACCCTTGGGTTCTAACCTGTTGCCT (site GGGTACCCTAG)	0.619
GAGTACCCTTGGGTTCTAACCTGTTGCCT (site GTGTACCCTAG)	0.0322
GAGTAGACTTGGGTTCTAACCTGTTGCTT (site GAGTAGACTAA)	1.64

Sequence	recombinant barcode read abundance (log10)
GAGTAGACTTGGGTTCTAACCTGTTGCTT (site GAGTAGTCTAA)	1.22
GAGTATGCTTGGGTTCTAACCTGTTGCCT (site GAGTATGCTAG)	1.72
GAGTATGCTTGGGTTCTAACCTGTTGCCT (site GATTATGCTAG)	0.223
GAGTATTCTTGGGTTCTAACCTGTTGCCT (site GAATATTCTAG)	1.2
GAGTATTCTTGGGTTCTAACCTGTTGCCT (site GACTATTCTAG)	0.0264
GAGTATTCTTGGGTTCTAACCTGTTGCCT (site GAGTATTCTAG)	1.16
GAGTATTCTTGGGTTCTAACCTGTTGCCT (site GATTATTCTAG)	0.123
GAGTCGTCTTGGGTTCTAACCTGTTGCCT (site GAGTCGCCTAG)	0.193
GAGTCGTCTTGGGTTCTAACCTGTTGCCT (site GAGTCGTCTAG)	1.78
GAGTCTACTTGGGTTCTAACCTGTTGCCA (site CCTATAGCTAA)	0.0951
GAGTCTACTTGGGTTCTAACCTGTTGCCA (site GAGTCTACTTG)	0.317
GAGTCTACTTGGGTTCTAACCTGTTGCCG (site GAGTCTACTCG)	0.562
GAGTCTACTTGGGTTCTAACCTGTTGCCG (site GAGTCTACTCT)	0.0936
GAGTTAACTTGGGTTCTAACCTGTTGCCG (site GAGTTAACTCG)	0.262
GAGTTAACTTGGGTTCTAACCTGTTGCCG (site GTGTGAACTCG)	0.0546
GAGTTCCCTTGGGTTCTAACCTGTTGCGT (site GAGTTACCTAC)	0.341
GAGTTCCCTTGGGTTCTAACCTGTTGCGT (site GAGTTCCCTAC)	2.66
GAGTTCCCTTGGGTTCTAACCTGTTGCGT (site GAGTTGCCTAC)	0.23
GAGTTCCCTTGGGTTCTAACCTGTTGCGT (site GAGTTTCCTAC)	0.0134
GAGTTGCCTTGGGTTCTAACCTGTTGCGT (site GAGTTACCTAC)	1.96
GAGTTGCCTTGGGTTCTAACCTGTTGCGT (site GAGTTCCCTAC)	0.108
GAGTTGCCTTGGGTTCTAACCTGTTGCGT (site GAGTTGCCTAC)	1.68
GAGTTGCCTTGGGTTCTAACCTGTTGCGT (site GAGTTTCCTAC)	0.0593
GAGTTTCCTTGGGTTCTAACCTGTTGCAG (site GAGCGTCCTCT)	0.118
GAGTTTCCTTGGGTTCTAACCTGTTGCAG (site GAGTTTCCTCT)	0.343
